Structures are written as SMILES. Where two headings read alike, the source gives them in different places.

These results are taken from patent US9408387B2, “Safening 6-amino-2-(substituted phenyl)-5-substituted-4-pyrimidinecarboxylate herbicide injury on cereal crops” (Dow AgroSciences LLC, priority 2009, dated 2016).

Common to all, as to format: in vivo
In assay [1] the test system is spring wheat (Triticum aestivum L; TRZAS). Kind of assay: Postemergence herbicidal safening in cereal crops, greenhouse, visual injury: spring wheat. As to conditions: Triticum aestivum, post-emergence, 480 h, read-out: TRZAS Ob (visual injury); for pest or weed control at 35 g/ha: herbicide alone 35 g ae/ha; for pest or weed control at 70 g/ha: herbicide alone 70 g/ha. The protocol: (§1) Evaluation of Postemergence Herbicidal Safening in Cereal Crops
(§2) Seeds of the desired test plant species were planted in Sun Gro MetroMix® 306 planting mixture, which typically has a pH of 6.0 to 6.8 and an organic matter content of about 30 percent, in plastic pots with a surface area of 103.2 square centimeters (cm^2). When required to ensure good germination and healthy plants, a fungicide treatment and/or other chemical or physical treatment was applied. The plants were grown for 7-36 days (d) in a greenhouse with an approximate 14-hour (h) photoperiod which was maintained at about 18° C. during the day and 17° C. during the night. Nutrients and water were added on a regular basis and supplemental lighting was provided with overhead metal halide 1000-Watt lamps as necessary. The plants were employed for testing when they reached the second or third true leaf stage.
(§3) Treatments consisted of the acids or esters of compounds 1-10 and cloquintocet-mexyl (CQC-M), fenchlorazole-ethyl, mefenpyr-diethyl alone and in combination. Weighed amounts of acid or methyl esters of the compounds of formula (I) were dissolved in a volume of 97:3 v/v acetone/dimethylsulfoxide (DMSO) to obtain concentrated solutions. […] The concentrated solutions of the test compound were diluted with the addition of an aqueous mixture containing acetone, water, isopropyl alcohol, DMSO, Agri-Dex crop oil concentrate, and Triton® X-77 surfactant in a 64.7:26.0:6.7:2.0:0.7:0.01 v/v ratio. Test compounds were diluted to the appropriate application rate with a dilution solution which was prepared by mixing the appropriate volume of 97:3 v/v acetone/DMSO and the appropriate volume of an aqueous mixture containing acetone, water, isopropyl alcohol, DMSO, Agri-Dex crop oil concentrate, and Triton® X-77 surfactant in a 64.7:26.0:6.7:2.0:0.7:0.01 v/v ratio. Compound requirements are based upon a 12 mL application volume at a rate of 187 liters per hectare (L/ha). The concentrated solutions of the safener were prepared following the same procedure. Weighed amounts of safener were dissolved in a volume of 97:3 v/v acetone/DMSO to obtain concentrated safener solutions.
(§4) Spray solutions of the herbicide safener and test compound mixtures were prepared by adding the concentrated solutions to the appropriate amount of dilution solution to form 12 mL spray solution with active ingredients in combinations.
(§5) Formulated compounds were applied to the plant material with an overhead Mandel track sprayer equipped with 8002E nozzles calibrated to deliver 187 L/ha over an application area of 0.503 square meters (m^2) at a spray height of 18 inches (43 centimeters (cm)) above average plant canopy. Control plants were sprayed in the same manner with the solvent blank.
(§6) The treated plants and control plants were placed in a greenhouse as described above and watered by sub-irrigation to prevent wash-off of the test compounds. After 20-22 d, the condition of the test plants as compared with that of the control plants was determined visually and scored on a scale of 0 to 100 percent where 0 corresponds to no injury and 100 corresponds to complete kill.
(§7) Colby's equation was used to determine the herbicidal effects expected from the mixtures (Colby, S. R. Calculation of the synergistic and antagonistic response of herbicide combinations. Weeds 1967, 15, 20-22.).
(§8) The following equation was used to calculate the expected activity of mixtures containing two active ingredients, A and B: Expected=A+B−(A×B/100)
(§9) A=observed efficacy of active ingredient A at the same concentration as used in the mixture.
(§10) B=observed efficacy of active ingredient B at the same concentration as used in the mixture.

In assay [2] the test system is spring barley (Hordeum vulgare L; HORVS). Put plainly: Postemergence herbicidal safening in cereal crops, greenhouse, visual injury: spring barley. The following applies: Hordeum vulgare, post-emergence, 480 h, read-out: HORVS Ob (visual injury); for pest or weed control at 35 g/ha: herbicide alone 35 g ae/ha; for pest or weed control at 70 g/ha: herbicide alone 70 g/ha. The method, then: as §1, §2, §3, §4, §5, §6, §7, §8, §9, §10

The subject of assay [3] is winter wheat (Triticum aestivum L; TRZAW). Kind of assay: Postemergence herbicidal safening in cereal crops, greenhouse, visual injury: winter wheat. The following applies: 20-22 d. The method, then:
as §1, §2, §3, §4, §5, §6, §7, §8, §9, §10

In assay [4] the test system is winter barley (Hordeum vulgare L; HORVW). Put plainly: Postemergence herbicidal safening in cereal crops, greenhouse, visual injury: winter barley. The following applies: 20-22 d. The method, then:
as §1, §2, §3, §4, §5, §6, §7, §8, §9, §10

The test system of assay [5] is durum wheat (Triticum durum L; TRZDU). Put plainly: Postemergence herbicidal safening in cereal crops, greenhouse, visual injury: durum wheat. The following applies: 20-22 d. The method, then: as §1, §2, §3, §4, §5, §6, §7, §8, §9, §10
Assay [6] has as its system lamb's-quarters (Chenopodium album L; CHEAL). Put plainly: Postemergence herbicidal activity, greenhouse, visual injury: lamb's-quarters. The following applies: 20-22 d. The method, then: as §1, §2, §3
Spray solutions of the herbicide safener and test compound mixtures were prepared by adding the concentrated solutions to the appropriate amount of dilution solution to form 12 mL spray solution with active ingredients in combinations. […]
The treated plants and control plants were placed in a greenhouse as described above and watered by sub-irrigation to prevent wash-off of the test compounds. After 20-22 d, the condition of the test plants as compared with that of the control plants was determined visually and scored on a scale of 0 to 100 percent where 0 corresponds to no injury and 100 corresponds to complete kill. […]

In assay [7] the test system is purple deadnettle (Lamium purpureum L; LAMPU). Kind of assay: Postemergence herbicidal activity, greenhouse, visual injury: purple deadnettle. The following applies: Lamium purpureum, post-emergence, 480 h, read-out: LAMPU Ob (visual injury); for pest or weed control at 70 g/ha: herbicide alone 70 g/ha. The method, then: as §1, §2, §3, §4, §5, §6, §7, §8, §9, §10

The subject of assay [8] is kochia (Kochia scoparia L; KCHSC). Put plainly: Postemergence herbicidal activity, greenhouse, visual injury: kochia. As to conditions: 20-22 d. The method, then:
as §1, §2, §3, §4, §5, §6, §7, §8, §9, §10

Assay [9] relates to corn poppy (Papaver rhoeas L; PAPRH). Kind of assay: Postemergence herbicidal activity, greenhouse, visual injury: corn poppy. As to conditions: 20-22 d. The protocol:
as §1, §2, §3, §4, §5, §6, §7, §8, §9, §10

In another assay the test system is AMARE. Put plainly: Postemergence herbicidal activity, greenhouse, visual injury: AMARE. As to conditions: 20-22 d. The protocol:
as §1, §2, §3, §4, §5, §6, §7
(§11) The following equation was used to calculate the expected activity of mixtures containing two active ingredients, A and B: Expected=A+B−(A×B/100) […]

A further assay deals with GALAP. Put plainly: Postemergence herbicidal activity, greenhouse, visual injury: GALAP. The following applies: 20-22 d. The protocol:
as §1, §2, §3, §4, §5, §6, §7, §11

Setting [10] is: herbicide alone 8.75 g/ha, 20-22 d.
[11] abbreviates: safener alone 140 g ae/ha, 20-22 d.
The mark [12] stands for this setting: herbicide alone 140 g/ha, 20-22 d.

For `COc1c(N)nc(-c2ccc(C(F)(F)F)cc2)nc1C(=O)O` [Compound 3, 6-amino-2-(4-trifluoromethylphenyl)-5-methoxypyrimidine-4-carboxylic acid], the pest or weed control at 8.75 g/ha in assay [1] (setting [10]) came out at 15%; in assay [2] (setting [10]), 13%. Moreover, the pest or weed control at 35 g/ha amounted to 75% in [1] (20-22 d) and 50% in assay [2] (20-22 d). For the same compound, the “TRZAW Ob (visual injury)” value in [3] (herbicide alone 8.75 g/ha) is 17%. Also, the “HORVW Ob (visual injury)” value in assay [4] (herbicide alone 8.75 g/ha) is listed as 8%. Moreover, in [5] (herbicide alone 8.75 g/ha), the “TRZDU Ob (visual injury)” value is 7%. In addition, the “CHEAL Ob (visual injury)” value in [6] (herbicide alone 35 g ae/ha) was 10%.

With `CCOC(=O)c1nc(C(Cl)(Cl)Cl)n(-c2ccc(Cl)cc2Cl)n1` [Fenchlorazole-ethyl, fenchlorazole-ethyl, reference compound], the pest or weed control at 140 g/ha in [1] (setting [11]), in assay [2] (setting [11]) and in assay [7] (setting [11]) was 0% throughout. The “CHEAL Ob (visual injury)” value in [6] (safener alone 140 g ae/ha) is 0%.

For the compound `CCOC(=O)C1=NN(c2ccc(Cl)cc2Cl)C(C)(C(=O)OCC)C1` (stereo not drawn) [Mefenpyr-diethyl, mefenpyr-diethyl, reference compound], the pest or weed control at 140 g/ha in [1], in assay [2] and in assay [7] was 0% in each case. Also, the “CHEAL Ob (visual injury)” value in [6] (safener alone 140 g ae/ha) is on record as 0%.

As for `COc1c(N)nc(-c2ccc(C)cc2)nc1C(=O)O` [Compound 6, 6-amino-2-p-tolyl-5-methoxypyrimidine-4-carboxylic acid], the pest or weed control at 35 g/ha was 35% in assay [1] (20-22 d) and 25% in [2] (20-22 d). For the same compound, the pest or weed control at 70 g/ha in [1] (20-22 d) turned out to be 20%; in assay [2] (20-22 d) it was 20%; in [7] (20-22 d), 75%. Moreover, the pest or weed control at 140 g/ha was determined as 55% in assay [1] (setting [12]), 40% in assay [2] (setting [12]) and 80% in assay [7] (setting [12]). For the same compound, the “KCHSC Ob (visual injury)” value in assay [8] (herbicide alone 70 g/ha) was determined as 60%; in [8] (herbicide alone 140 g/ha) it was 70%. The “PAPRH Ob (visual injury)” value was 97% in assay [9] (herbicide alone 70 g/ha) and 100% in assay [9] (herbicide alone 140 g/ha). For the same compound, in [6] (herbicide alone 35 g ae/ha), the “CHEAL Ob (visual injury)” value came to 83%.

With `COc1c(Cl)ccc(-c2nc(N)c(Cl)c(C(=O)O)n2)c1F` [Compound 1, 6-amino-5-chloro-2-(4-chloro-2-fluoro-3-methoxyphenyl)pyrimidine-4-carboxylic acid], the pest or weed control at 70 g/ha in [1] (20-22 d) came to 25%; in [2] (20-22 d), 15%; in [7] (20-22 d) it was 95%. Also, the figures for the pest or weed control at 140 g/ha in assay [1] (setting [12]), in assay [2] (setting [12]) and in assay [7] (setting [12]) were 45%, 30% and 99%, respectively. For the same compound, the “TRZAW Ob (visual injury)” value was found to be 35% in assay [3] (herbicide alone 70 g/ha) and 40% in assay [3] (herbicide alone 140 g/ha). Moreover, the “HORVW Ob (visual injury)” value in assay [4] (herbicide alone 70 g/ha) came to 15%; in [4] (herbicide alone 140 g/ha) it was 40%. In addition, the “TRZDU Ob (visual injury)” value in assay [5] (herbicide alone 70 g/ha) is recorded as 15%; in assay [5] (herbicide alone 140 g/ha), 35%. The “AMARE Ob (visual injury)” value in the assay with AMARE (herbicide alone 70 g/ha) and in the assay with AMARE (herbicide alone 140 g/ha) was 100% each time. For the same compound, the “GALAP Ob (visual injury)” value in the assay with GALAP (herbicide alone 70 g/ha) and with GALAP (herbicide alone 140 g/ha) was 95% each time.
